Key:
Format in all cases: cell-based
[1] = tested on: IL-6 (THP-1 human monocyte cell line); assay: IL-6 inhibition in LPS-stimulated THP-1 cells (HTRF); conditions: LPS 500 ng/mL; for EC50: 22 hours, IL6 HTRF; for inhibition at 10 µM: given for EC50 >10 μM, read-out: percent inhibition at 10 μM
Outline: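 THP-1 cells, serum-reduced to 1% FBS for 24 h, preincubated 2 h at 37° C with compound (10-point, 1:3 series, 0.1% DMSO), then stimulated with 500 ng/mL LPS for 22 h. IL-6 quantified by HTRF 665/620 nm ratio, normalized to DMSO; EC50 by four-parameter fit, else percent inhibition at 10 μM.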

[2] = tested on: primary human fibroblasts derived from IPF patients (LL29 cells); assay: Inhibition of fibrotic process, αSMA staining in TGF-β1 treated LL29 fibroblasts; conditions: Fibroblast, 96 h, TGF-β1 20 ng/mL, 4 days; for EC50: % αSMA positive cells; for inhibition at 10 µM: given for EC50 >10 μM, read-out: percent inhibition at 10 μM
Outline: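 IPF-patient LL29 lung fibroblasts in 1% FBS medium received compound (11-point, 1:2 dilution, 0.1% DMSO) plus TGF-β1 20 ng/mL, 4 days at 37 °C. Percent αSMA-positive cells among SYTOX-negative cells quantified by immunofluorescence imaging, normalized to TGF-β1/DMSO wells. EC50 by non-linear regression on triplicates; above 10 μM, % inhibition at 10 μM given.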

SW480 colon cancer cells = assay: Cell viability assay (CellTiter-Blue); conditions: Homo sapiens, 96 h, four days; for inhibition at 10 µM: given for EC50 >10 μM, read-out: percent inhibition at 10 μM
Outline: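 SW480 colon cancer cells (~2×10^3/well) exposed to 8-point 1:3 dilutions from 10 μM to 0.0045 μM for four days at 37 °C/5% CO2. Viability read by resazurin (CellTiter-Blue) fluorescence after ~3 h, Ex 560/Em 590 nm. EC50 from non-linear regression; percent inhibition at 10 μM given when EC50 >10 μM.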

SMILES	EC50 [1] [µM]	EC50 [2] [µM]	EC50 (SW480 colon cancer cells) [µM]	inhibition at 10 µM (SW480 colon cancer cells) [%]	inhibition at 10 µM [1] [%]	inhibition at 10 µM [2] [%]
CCCCC(=O)Nc1cncc(-c2cnc3[nH]nc(-c4cc5cccnc5[nH]4)c3c2)c1 [Compound 271, N-(5-(3-(1H-Pyrrolo[2,3-b]pyridin-2-yl)-1H-pyrazolo[3,4-b]pyridin-5-yl)pyridin-3-yl)pentanamide]	0.041	5.35	> 10	11.4	–	–
CCCCC(=O)Nc1cncc(-c2cnc3[nH]nc(-c4cc5c(-c6ccccc6F)ccnc5[nH]4)c3c2)c1 [Compound 75, N-(5-(3-(4-(2-Fluorophenyl)-1H-pyrrolo[2,3-b]pyridin-2-yl)-1H-pyrazolo [3,4-b]pyridin-5-yl)pyridin-3-yl)pentanamide]	> 10	> 10	> 10	23.6	33.8	0
Fc1ccc(-c2ccnc3[nH]c(-c4n[nH]c5ncc(-c6cncc(CN7CCCCC7)c6)cc45)cc23)cc1 [Compound 43, 3-(4-(4-Fluorophenyl)-1H-pyrrolo[2,3-b]pyridin-2-yl)-5-(5-(piperidin-1-ylmethyl)pyridin-3-yl)-1H-pyrazolo[3,4-b]pyridine]	> 10	> 10	> 10	6.9	36.7	0
CCNCc1cncc(-c2cnc3[nH]nc(-c4cc5c(-c6cccnc6)ccnc5[nH]4)c3c2)c1 [Compound 90, N-((5-(3-(4-(Pyridin-3-yl)-1H-pyrrolo[2,3-b]pyridin-2-yl)-1H-pyrazolo[3,4-b]pyridin-5-yl)pyridin-3-yl)methyl)ethanamine]	5.36	> 10	> 10	17	–	5.1
CN(C)c1cncc(-c2cnc3[nH]nc(-c4cc5c(-c6cccs6)ccnc5[nH]4)c3c2)c1 [Compound 343, N,N-Dimethyl-5-(3-(4-(thiophen-2-yl)-1H-pyrrolo[2,3-b]pyridin-2-yl)-1H-pyrazolo[3,4-b]pyridin-5-yl)pyridin-3-amine]	0.032	1.75	> 10	36.8	–	–
Cc1ccncc1-c1cnc2[nH]nc(-c3cc4c(-c5ccncc5)ccnc4[nH]3)c2c1 [Compound 117, 5-(4-Methylpyridin-3-yl)-3-(4-(pyridin-4-yl)-1H-pyrrolo[2,3-b]pyridin-2-yl)-1H-pyrazolo[3,4-b]pyridine]	> 10	> 10	> 10	10.1	17.1	52.9
CC(C)CC(=O)Nc1cncc(-c2cnc3[nH]nc(-c4cc5c(-c6cccnc6)ccnc5[nH]4)c3c2)c1 [Compound 86, 3-Methyl-N-(5-(3-(4-(pyridin-3-yl)-1H-pyrrolo[2,3-b]pyridin-2-yl)-1H-pyrazolo[3,4-b]pyridin-5-yl)pyridin-3-yl)butanamide]	> 10	> 10	> 10	24.1	34.3	0
O=C(Nc1cncc(-c2cnc3[nH]nc(-c4cc5cccnc5[nH]4)c3c2)c1)C1CCCCC1 [Compound 275, N-(5-(3-(1H-Pyrrolo[2,3-b]pyridin-2-yl)-1H-pyrazolo[3,4-b]pyridin-5-yl)pyridin-3-yl)cyclohexanecarboxamide]	0.063	1.56	2.43	–	–	–
O=C(Nc1cncc(-c2cnc3[nH]nc(-c4cc5cccnc5[nH]4)c3c2)c1)c1ccccc1 [Compound 263, N-(5-(3-(1H-Pyrrolo[2,3-b]pyridin-2-yl)-1H-pyrazolo[3,4-b]pyridin-5-yl)pyridin-3-yl)benzamide]	0.31	0.363	> 10	21.1	–	–
CCNCc1cncc(-c2cnc3[nH]nc(-c4cc5c(-c6ccccc6F)ccnc5[nH]4)c3c2)c1 [Compound 62, N-((5-(3-(4-(2-Fluorophenyl)-1H-pyrrolo[2,3-b]pyridin-2-yl)-1H-pyrazolo [3,4-b]pyridin-5-yl)pyridin-3-yl)methyl)ethanamine]	> 10	> 10	> 10	38.2	13.3	0
Fc1cccc(-c2ccnc3[nH]c(-c4n[nH]c5ncc(-c6ccccn6)cc45)cc23)c1 [Compound 28, 3-(4-(3-Fluorophenyl)-1H-pyrrolo[2,3-b]pyridin-2-yl)-5-(pyridin-2-yl)-1H-pyrazolo[3,4-b]pyridine]	> 10	> 10	> 10	16.3	49.5	52
Oc1cncc(-c2cnc3[nH]nc(-c4cc5c(-c6ccc(F)cc6)ccnc5[nH]4)c3c2)c1 [Compound 533, 5-(3-(4-(4-Fluorophenyl)-1H-pyrrolo[2,3-b]pyridin-2-yl)-1H-pyrazolo[3,4-b]pyridin-5-yl)pyridin-3-ol]	> 10	6.76	> 10	19	20.7	–
CC(C)CC(=O)Nc1cncc(-c2cnc3[nH]nc(-c4cc5c(-c6ccc(F)cc6)ccnc5[nH]4)c3c2)c1 [Compound 30, N-(5-(3-(4-(4-Fluorophenyl)-1H-pyrrolo[2,3-b]pyridin-2-yl)-1H-pyrazolo [3,4-b]pyridin-5-yl)pyridin-3-yl)-3-methylbutanamide]	> 10	> 10	> 10	18.5	0	12.8
Cc1ncc(-c2cnc3[nH]nc(-c4cc5c(-c6cc(F)cc(NCCN(C)C)c6)ccnc5[nH]4)c3c2)n1C [Compound 781, N^1-(3-(2-(5-(1,2-Dimethyl-1H-imidazol-5-yl)-1H-pyrazolo[3,4-b]pyridin-3-yl)-1H-pyrrolo[2,3-b]pyridin-4-yl)-5-fluorophenyl)-N^2,N^2-dimethylethane-1,2-diamine]	> 10	0.938	> 10	0	44.5	–
c1ccc(CNCc2cncc(-c3cnc4[nH]nc(-c5cc6c(-c7ccncc7)ccnc6[nH]5)c4c3)c2)cc1 [Compound 136, N-Benzyl-1-(5-(3-(4-(pyridin-4-yl)-1H-pyrrolo[2,3-b]pyridin-2-yl)-1H-pyrazolo[3,4-b]pyridin-5-yl)pyridin-3-yl)methanamine]	> 10	3.04	> 10	14.9	23.5	–
CCC(=O)Nc1cncc(-c2cnc3[nH]nc(-c4cc5c(-c6cccc(F)c6)ccnc5[nH]4)c3c2)c1 [Compound 1, N-(5-(3-(4-(3-Fluorophenyl)-1H-pyrrolo[2,3-b]pyridin-2-yl)-1H-pyrazolo [3,4-b]pyridin-5-yl)pyridin-3-yl)propionamide]	> 10	> 10	> 10	9.8	23.8	0
Nc1cncc(-c2cnc3[nH]nc(-c4cc5c(-c6ccccc6F)ccnc5[nH]4)c3c2)c1 [Compound 59, 5-(3-(4-(2-Fluorophenyl)-1H-pyrrolo[2,3-b]pyridin-2-yl)-1H-pyrazolo[3,4-b]pyridin-5-yl)pyridin-3-amine]	> 10	> 10	> 10	20.1	34.8	0
